Assay [1] has as its system TM4SF5-expressing cells (SNU449T7). Nature of the assay: Subcutaneous xenograft model of TM4SF5-expressing liver cancer cell line. It counts as in vivo, BALB/c-Nude mice. As to conditions: for tumor volume / liver cancer formation inhibitory effect: 5 mg/kg IP every 3 days, 8 times; for tumor volume: vs vehicle (FIG. 11c); for liver cancer formation inhibitory effect: images of recovered cancer tissues (FIG. 11b); for expressions of factors related to fibrosis, inflammation-related cytokines/chemokines (CCL2, CCL5, or CCL20), and AFP: cancer tissues vs vehicle (FIG. 11e); for phosphorylation of FAK, STAT3, c-Src, Akt and p27: liver cancer tissue extracts, three days after last injection (FIG. 11d). Here is the method:
The next day, the cells were detached by treating with a T/E (Trypsin/EDTA) solution and centrifuged at 150x g for 3 minutes to obtain a pellet. Thereafter, the supernatant was removed, and the pellet was prepared by resuspension in phosphate buffered saline (PBS). For the generation of liver cancer, 10^7 cells/100 µl were injected once subcutaneously into the right thigh area of 8-week-old male BALB/c-Nude mice. At this time, the animals were anesthetized by inhalation with […] and injected. From the 7th day after the cell injection, drugs ST-2-001, ST-3-006, and ST-3-011 were each intraperitoneally injected at 5 mg/kg of body weight for a total of 8 times every 3 days. The body weight of the animals was measured every week from the day of cell injection, and the tumor volume was measured every 3 days from the 7th day after the cell injection. The tumor volume was calculated as (length×width×width)/2 (mm^3) by measuring the length and width of the tumor. Finally, on the 31st day after the cell injection, the animals were sacrificed by a standard method, and liver tissues were obtained to analyze the liver cancer tissues.
Eight-week-old male BALB/c-Nude mice (n=8, Orient, Seongnam, Republic of Korea) were allowed free access to a normal diet, and TM4SF5-non-expressing cells (SNU449Cp) and TM4SF5-expressing cells (SNU449T7) were injected once subcutaneously at a dose of 10^7 cells per mouse. Starting from the 7th day after the cell injection, drug ST-2-001, ST-3-006, or ST-3-011 was intraperitoneally injected at 5 mg/kg of body weight every 3 days for a total of 8 times. Body weight and tumor volume were measured every week, and on the 31st day after the cell injection, the mice were anesthetized by a standard method, liver tissues were obtained, and the size of the liver cancer tissues was photographed. Thereafter, the tissues were randomly divided into several sets and analyzed by immunohistochemistry, Western blot, qRT-PCR, etc.

The target in the next assay is T1, TM4SF5 and PD-L1 (Homo sapiens, UniProt O14894).
T1 construct: expressed in transfected cells; host or cells: SNU449 cells stably expressing TM4SF5, additionally transfected with PD-L1-HA cDNA
T1 sequence (O14894 1-197): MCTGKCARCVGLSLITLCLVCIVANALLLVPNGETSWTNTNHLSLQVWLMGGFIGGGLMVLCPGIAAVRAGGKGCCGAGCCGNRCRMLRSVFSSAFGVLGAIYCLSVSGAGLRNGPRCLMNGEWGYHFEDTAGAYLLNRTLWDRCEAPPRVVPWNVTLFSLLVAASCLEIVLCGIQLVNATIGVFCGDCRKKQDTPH
Briefly: Pulldown: binding between TM4SF5 and PD-L1. The conditions noted are these: 2.5 µM, 24 hours, SNU449 (FIG. 17c). The assay is classed as cell-based. Here is the method:
Cells were cultured to ~60% density in a cell incubator at 37°C and 5% CO2, and then transfected using PEI and cultured in a cell incubator at 37°C for two days. After cultivation, cell extracts were obtained by the method described above. After precipitating a desired protein from the cell extracts using an immunoprecipitation method, the binding proteins were identified by the Western blot technique described above. Specifically, cells cultured in a 100 mm cell culture dish for two days were washed twice with PBS, and protease inhibitor cocktails (GenDepot, USA) were added to 500 µl of immunoprecipitation lysis buffer (0.5% Triton X-100 or Brij 58, 40 mM HEPES, 150 mM NaCl, 1 mM EDTA, pH 7.4), followed by treatment at 4°C for 15 minutes. After collecting the cells, centrifugation was performed at 12,000x g at 4°C for 15 minutes, and the supernatant was transferred to a new microcentrifuge tube to obtain a cell extract. Proteins therein were quantified using a BCA reagent (Thermo Scientifics, USA). An electrophoresis sample was prepared by adding 4x laemmli sample buffer to a portion of the quantified sample and boiling at 100°C for 5 minutes. For immunoprecipitation, Streptavidin Agarose Resin (Thermo Fisher Scientific) or anti-HA antibody-coated Sepharose beads were added in proportion to the quantified protein amount, followed by rotation at 4°C for 4 hours, and then centrifugation was performed at 7,000x g at 4°C for 5 minutes and the supernatant was discarded. […]
(a-b) The same number of SNU449-EV or SNU449-TM4SF5 cells were transferred to culture vessels and cultured overnight. […] From the cell extracts, Strep-TM4SF5 was pulled down with strep-agarose beads, and then Western blotting was performed using antibodies against the indicated proteins, or the intracellular localization and expression level of TM4SF5 (red fluorescence) and PD-L1 (green fluorescence) were confirmed with a fluorescence microscope through immunostaining along with DNA staining using DAPI.

Each structure is given as a SMILES string.

On to `COc1ccc(-c2cc(-c3ccc(NC(C)=O)cc3)no2)cc1` [ST-2-001, N-(4-(5-(4-methoxyphenyl)isoxazole-3-yl)phenyl)acetamide], for which, in assay [1], the tumor volume result is “statistically significantly inhibited”; the “liver cancer formation inhibitory effect” value is “the greatest”; the “expressions of factors related to fibrosis, inflammation-related cytokines/chemokines (CCL2, CCL5, or CCL20), and AFP” value is listed as “decreased”; the “phosphorylation of FAK, STAT3, c-Src, Akt and p27” value (shortened to “phosphorylation of FAK, STAT3”) is “significantly inhibited”.

Regarding `CC(=O)Nc1ccc(-c2cc(-c3ccc(F)cc3)on2)cc1` [ST-3-006, N-(4-(5-(4-fluorophenyl)isoxazole-3-yl)phenyl)acetamide], in assay [1], the tumor volume result was “statistically significantly inhibited”; the “liver cancer formation inhibitory effect” value is given as “relatively less than those of ST-2-001”; the “expressions of factors related to fibrosis, inflammation-related cytokines/chemokines (CCL2, CCL5, or CCL20), and AFP” value is given as “decreased”; the “phosphorylation of FAK, STAT3” value was “significantly inhibited”.

For the molecule `COc1ccc(-c2cc(-c3cccc(NC(C)=O)c3)no2)cc1` [ST-3-011, N-(3-(5-(4-methoxyphenyl)isoxazole-3-yl)phenyl)acetamide], in assay [1], the tumor volume entry is reported as “statistically significantly inhibited”; the “liver cancer formation inhibitory effect” value is listed as “relatively less than those of ST-2-001”; the “expressions of factors related to fibrosis, inflammation-related cytokines/chemokines (CCL2, CCL5, or CCL20), and AFP” value is reported as “decreased”; the “phosphorylation of FAK, STAT3” value is “significantly inhibited”.

On to `CC(=O)Nc1ccc(-c2cc(-c3ccc(O)cc3)no2)cc1` [ST-5-001, N-(4-(3-(4-hydroxyphenyl)isoxazole-5-yl)phenyl)acetamide], for which, on TM4SF5 and PD-L1, the “binding between TM4SF5 and PD-L1” value was “decreased and inhibited”.

In the case of `Cc1ccc(C(=O)Nc2ccc(-c3cc(-c4ccc(O)cc4)no3)cc2)cc1` [ST-5-002, N-(4-(3-(4-hydroxyphenyl)isoxazole-5-yl)phenyl)-4-methylbenzamide], the “binding between TM4SF5 and PD-L1” value on TM4SF5 and PD-L1 is “decreased and inhibited”.

In the case of `Cc1ccc(S(=O)(=O)Nc2ccc(C(=O)/C=C/c3ccc(O)cc3)cc2)cc1` [TSAHC, 4'-(p-toluenesulfonylamino)-4-hydroxychalcone, reference compound], the “binding between TM4SF5 and PD-L1” value at TM4SF5 and PD-L1 is “inhibition”.
